Results taken from BindingDB's records for doi:10.1021/acs.jmedchem.6b01303 (Astrazeneca, 2016).

Assay: Inhibition of SMYD2 (unknown origin) expressed in human U2OS cells assessed as reduction in cell count incubated for 24 hrs by DAPI staining based assay

Compound | IC50 [µM]
N#Cc1cc(C(=O)NCCCN2CCCC2)cc(-c2ccccc2N2CCN(CCc3ccc(Cl)c(Cl)c3)CC2)c1 | 5
O=C(NCCCN1CCCC1)c1cncc(-c2ccccc2N2CCN(CCc3c[nH]c4ccccc34)CC2)c1 | 13.3
